From US6440451B1, “Use of crataegus formulations for prophylaxis and treatment of neoplastic diseases” (Nativia Health Products GmbH, priority 1998, dated 2002)

What was measured:
[1] = tested on: HT-29; experiment: MTT assay, HT-29 colon carcinoma cells; assay type: cell-based, human; details: 72 hours
Description: (§1) In the context of the present invention, five human tumour cell lines (four carcinoma cell lines, one sarcoma cell line) and one animal carcinoma cell line (cf. tab. 2) were investigated as examples. All the cell lines were kept in permanent cell culture in cell culture bottles with 75 cm^2 base area. They were subjected to passage once a week, and the medium was changed twice a week. At the start of the experiment (day 0), the cells were sown in cell culture plates with 96 depressions (96 well plates) in 100 μl medium per well (=0.32 cm^2) in each case, with the density shown in table 2. On days 1 and 4, the medium of all the cells was changed, and after the change of medium on day 4, incubation with the active substances (Crataegus formulations, Gentiana, superoxide dismutase, 5-fluorouracil and methotrexate; see below) or the solvents as controls started immediately. The effects of the active substances were measured on day 7 (that is to say after incubation for 72 hours) with two different methods, the so-called MTT assay and the SRB assay (see tab. 2).
(§2) MTT assay: The MTT assay (T. Mossman, J. Immunoll. Methods 65 (1983) 55-63) is based on measurement of the metabolic activity of living cells. The substance 3-(4,5-dimethylthiazol-2-yl)-2,5-diphenyltetrazolium bromide (MTT), which the cells reduce intracellularly to the water-insoluble dyestuff formazan, is made available to the cells. This reduction takes place only in metabolically active cells, so that this assay detects exclusively living cells. At the measurement time, in each case 100 μl MTT solution (4 mg/ml PBS, phosphate buffered saline) are added to the cells in 100 μl medium. Incubation for two hours at 37° C. then takes place. Thereafter, the medium is sucked off, so that the dyed living cells adhering to the base of the culture flask remain. These and the dyestuff are dissolved with 100 μl DMSO (dimethylsulphoxide) in the course of 5 minutes, with vigorous shaking. The extinction is then determined photometrically at 570 nm. Its linearity in the range used here, and also its correlation to the number of living cells (counted under the microscope) were detected in preliminary experiments. […] For the evaluation, ΔE was determined by subtraction of the extinction in the controls with PBS from the measurement values with MTT.
(§3) The data shown in table 3 are the means of three individual measurements. ΔE measured under the action of the various test substances has additionally been shown in percent of ΔE of the particular solvent controls. […] At the time of addition of the test substance (day 4), the cells had already reached approx. 50% of the density, and therefore also 50% of the ΔE to be measured.

[2] = tested on: CMT-93; experiment: SRB assay, CMT-93 rectum carcinoma cells; assay type: cell-based, mouse; details: 72 hours
Description: as §1
SRB assay: The SRB assay (P. Skehan et al., J. Natl. Cancer Inst. 82 (1990) 1107-1112) is based on binding of the dyestuff sulphorhodamine B (SRB) to basic proteins. The principle specifies fixing, with the aid of trichloroacetic acid, the tumour cells adhering to the culture vessel base and thereafter dyeing their protein. This dyeing is then also determined photometrically. Non-living cells are distinguished in that they first detach themselves from the cell culture base and then dissolve in the culture medium. This method therefore also measures only the living cells in a cell culture. The cells growing in 100 μl medium are first fixed with 25 μl 50% cold trichloroacetic acid at 4° C. After incubation for one hour at 4° C., all the non-fixed constituents are removed and those which remain are rinsed five times with water. After drying in air, 200 μl 0.4% sulphorhodamine B solution in 1% acetic acid or, in the photometric controls, only acetic acid,. are added. […] The extinction was measured at 570 nm or, if the OD (optical density) lay outside the linear range, at 492 nm (for CMT-93 cells). For the evalution, ΔE was determined by subtraction of the extinction in the controls with acetic acid from the measurement values with SRB.
as §3

[3] = tested on: SKMEL-2; experiment: SRB assay, SK-MEL-2 malignant melanoma cells; assay type: cell-based, human; details: for % control / dE mean: SKMEL-2, 72 hours
Description: as §1
SRB assay: The SRB assay (P. Skehan et al., J. Natl. Cancer Inst. 82 (1990) 1107-1112) is based on binding of the dyestuff sulphorhodamine B (SRB) to basic proteins. The principle specifies fixing, with the aid of trichloroacetic acid, the tumour cells adhering to the culture vessel base and thereafter dyeing their protein. This dyeing is then also determined photometrically. Non-living cells are distinguished in that they first detach themselves from the cell culture base and then dissolve in the culture medium. This method therefore also measures only the living cells in a cell culture. The cells growing in 100 μl medium are first fixed with 25 μl 50% cold trichloroacetic acid at 4° C. After incubation for one hour at 4° C., all the non-fixed constituents are removed and those which remain are rinsed five times with water. After drying in air, 200 μl 0.4% sulphorhodamine B solution in 1% acetic acid or, in the photometric controls, only acetic acid,. are added. After incubation for 30 minutes at room temperature, the dyestuff solution is poured out and the culture is rinsed four times with 1% acetic acid. After removal of the rinsing solution and drying, the dyestuff adhering to the basic proteins is dissolved in 100 μl 10 mM tris-base (tris(hydroxymethyl)aminomethane) in the course of 5 minutes. The extinction was measured at 570 nm or, if the OD (optical density) lay outside the linear range, at 492 nm (for CMT-93 cells). For the evalution, ΔE was determined by subtraction of the extinction in the controls with acetic acid from the measurement values with SRB.
The data shown in table 3 are the means of three individual measurements. ΔE measured under the action of the various test substances has additionally been shown in percent of ΔE of the particular solvent controls. The control cells, which received no test substances (Crataegus formulations) but only medium or solvent, reached 100% of their density (number) as defined at the measurement time (day 7). At the time of addition of the test substance (day 4), the cells had already reached approx. 50% of the density, and therefore also 50% of the ΔE to be measured.

[4] = tested on: Caki-1; experiment: MTT assay, Caki-1 kidney carcinoma cells; assay type: cell-based, human; details: 72 hours
Description: as §1, §2, §3

[5] = tested on: U373MG; experiment: SRB assay, U373MG glioblastoma cells; assay type: cell-based, human
Description: In the context of the present invention, five human tumour cell lines (four carcinoma cell lines, one sarcoma cell line) and one animal carcinoma cell line (cf. tab. 2) were investigated as examples. All the cell lines were kept in permanent cell culture in cell culture bottles with 75 cm^2 base area. They were subjected to passage once a week, and the medium was changed twice a week. At the start of the experiment (day 0), the cells were sown in cell culture plates with 96 depressions (96 well plates) in 100 μl medium per well (=0.32 cm^2) in each case, with the density shown in table 2. […] [table] SRB assay: The SRB assay (P. Skehan et al., J. Natl. Cancer Inst. 82 (1990) 1107-1112) is based on binding of the dyestuff sulphorhodamine B (SRB) to basic proteins. The principle specifies fixing, with the aid of trichloroacetic acid, the tumour cells adhering to the culture vessel base and thereafter dyeing their protein. This dyeing is then also determined photometrically. Non-living cells are distinguished in that they first detach themselves from the cell culture base and then dissolve in the culture medium. This method therefore also measures only the living cells in a cell culture. The cells growing in 100 μl medium are first fixed with 25 μl 50% cold trichloroacetic acid at 4° C. After incubation for one hour at 4° C., all the non-fixed constituents are removed and those which remain are rinsed five times with water. After drying in air, 200 μl 0.4% sulphorhodamine B solution in 1% acetic acid or, in the photometric controls, only acetic acid,. are added. […] For the evalution, ΔE was determined by subtraction of the extinction in the controls with acetic acid from the measurement values with SRB. The data shown in table 3 are the means of three individual measurements. ΔE measured under the action of the various test substances has additionally been shown in percent of ΔE of the particular solvent controls. […] At the time of addition of the test substance (day 4), the cells had already reached approx. 50% of the density, and therefore also 50% of the ΔE to be measured.

[6] = tested on: SAOS-2; experiment: MTT assay, SAOS-2 osteosarcoma cells; assay type: cell-based, human; details: 72 hours
Description: as §1, §2, §3

[7] = tested on: human neuroblastoma and breast carcinoma cells; details: Fotsis et al., Cancer Research 57 (1997); cited from earlier work
[8] = tested on: human fibroblasts, keratinocytes and endothelial cells; details: Fotsis et al., Cancer Research 57 (1997); cited from earlier work
[9] = tested on: tumour cell lines investigated; experiment: MTT/SRB assays, statements on all tumour cell lines investigated; assay type: cell-based; details: table 3
Description: as §1, with “On days 1 and 4, the medium of all the cells was changed, and after the change of medium on day 4, incubation with the active substances (Crataegus formulations, Gentiana, superoxide dismutase, 5-fluorouracil and methotrexate; see below) or the solvents as controls started immediately.” left out
MTT assay: The MTT assay (T. Mossman, J. Immunoll. Methods 65 (1983) 55-63) is based on measurement of the metabolic activity of living cells. […] The extinction is then determined photometrically at 570 nm. Its linearity in the range used here, and also its correlation to the number of living cells (counted under the microscope) were detected in preliminary experiments. […] For the evaluation, ΔE was determined by subtraction of the extinction in the controls with PBS from the measurement values with MTT. […]

[10] = U373MG, medium, 45 μg/ml, 72 hours
[11] = solvent H2O 0.10% final conc, 1 μg/ml

O=c1[nH]cc(F)c(=O)[nH]1 [5-Fluorouracil]
% control ([1]; medium, 25 μg/ml): 53% | dE mean ([1]; medium, 25 μg/ml): 0.973 | % control ([2]; medium, 25 μg/ml): 63% | dE mean ([2]; medium, 25 μg/ml): 0.191

CN(Cc1cnc2nc(N)nc(N)c2n1)c1ccc(C(=O)N[C@@H](CCC(=O)O)C(=O)O)cc1 [Methotrexate]
% control ([3]; medium, 45 μg/ml): 119% | dE mean ([3]; medium, 45 μg/ml): 2.429 | cytostatic/cytotoxic action on SKMEL-2 cells, in words ([3]; table 3): resistance | % control ([4]; medium, 45 μg/ml): 47% | dE mean ([4]; medium, 45 μg/ml): 0.679 | % control [5, 10]: 135% | dE mean [5, 10]: 1.449 | cytostatic/cytotoxic action on U373MG cells, in words ([5]; table 3): resistance | % control ([6]; medium, 45 μg/ml): 41% | dE mean ([6]; medium, 45 μg/ml): 0.259

O=c1cc(-c2ccc(O)c(O)c2)oc2cc(O[C@@H]3O[C@H](CO)[C@@H](O)[C@H](O)[C@H]3O)cc(O)c12 [luteolin-7-glucoside]
effect on proliferation of human neuroblastoma and breast carcinoma cells [7]: inhibiting effect | effect on proliferation of human fibroblasts, keratinocytes and endothelial cells [8]: inhibits the proliferation

O=c1c(O)c(-c2ccc(O)c(O)c2)oc2cc(O)cc(O)c12 [quercetin]
effect on proliferation of human neuroblastoma and breast carcinoma cells [7]: inhibiting effect | effect on proliferation of human fibroblasts, keratinocytes and endothelial cells [8]: inhibits the proliferation

Superoxide dismutase: Superoxide dismutase from bovine erythrocytes, superoxide scavenger comparison
% control [3, 11]: 94% | dE mean [3, 11]: 1.340 | cytostatic/cytotoxic action on the cell lines investigated, in words [9]: no cytostatic or cytotoxic effects | % control [4, 11]: 97% | dE mean [4, 11]: 1.442 | % control [6, 11]: 98% | dE mean [6, 11]: 0.564 | % control [1, 11]: 90% | dE mean [1, 11]: 1.725 | % control [2, 11]: 92% | dE mean [2, 11]: 0.326
